Blank lines part the entries; values can stand above or below the compound they belong to. Activity calls are given as the source filed them. No cut-off for these calls is given here.
Experiments:
Homo sapiens = species: Homo sapiens; assay: Inhibition of calcineurin phosphatase activity (unknown origin) assessed as R2 phosphopeptide dephosphorylation up to 10 uM after 30 mins by malachite green staining assay in presence of calmodulin and CypA
[1] = (§1) Cellular uptake in human Jurkat T cells assessed as displacemnet of [O-(2-acetamido)-D-serine]8-cyclosporine N-{(5-aminopentyl)-[2,3,6,7-tetrahydro-11-oxo-1H,5H,11Hbenzopyrano(6,7,8-ij)quinolizine-10-carboxyl amide] from intracellular compartments after 90 mins by flow cytometric analysis; format: ADME, cell-based; settings: 1.5 h
[2] = molecular target: T1, Peptidyl-prolyl cis-trans isomerase A (Homo sapiens, UniProt P62937); assay: Inhibition of CypA PPIase activity (unknown origin) using Glt-(Ala)n-Pro-Phe-4-nitroanilides as substrate
Target sequence in this assay (P62937 whole entry): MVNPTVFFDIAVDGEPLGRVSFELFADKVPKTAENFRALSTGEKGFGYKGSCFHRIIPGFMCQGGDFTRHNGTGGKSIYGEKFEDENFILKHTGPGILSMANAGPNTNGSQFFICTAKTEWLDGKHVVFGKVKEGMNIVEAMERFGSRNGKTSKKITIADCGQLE

[3] = Inhibition of calcineurin phosphatase activity (unknown origin) assessed as R2 phosphopeptide dephosphorylation after 30 mins by malachite green staining assay in presence of calmodulin and CypA
Mus musculus [4] = assay: In vivo inhibition of extracellular cyclophilin-mediated monocytes recruitment in peritoneal fluid of thioglycollate challenged C57BL6 mouse peritonitis model at 20 mg/kg, ip administered 3 hrs before thioglycollate challenge measured after 18 hrs; format: functional, organism-based; set-up: dose 20 mg/kg
Mus musculus [5] = assay: In vivo inhibition of extracellular cyclophilin-mediated neutrophil recruitment in peritoneal fluid in thioglycollate challenged CD147-deficient C57BL6 mouse peritonitis model at 20 mg/kg, ip administered 3 hrs before thioglycollate challenge measured after 18 hrs; format: functional, organism-based; set-up: dose 20 mg/kg
Mus musculus [6] = assay: In vivo inhibition of extracellular cyclophilin-mediated CD11b+ myeloid cells infiltration into TNCB challenged ear in CD147-deficient C57BL6 mouse allergic contact hypersensitivity model at 4 mg/kg, ip bid administered on day 4 to 6 prior to TNCB challenge by immunohistochemical analysis; format: functional, organism-based; set-up: dose 4 mg/kg
Mus musculus [7] = assay: In vivo inhibition of extracellular cyclophilin-mediated neutrophils recruitment in peritoneal fluid of thioglycollate challenged C57BL6 mouse peritonitis model at 20 mg/kg, ip administered 3 hrs before thioglycollate challenge measured after 18 hrs; format: functional, organism-based; set-up: dose 20 mg/kg
[8] = molecular target: T1, Peptidyl-prolyl cis-trans isomerase A; settings: 1 uM
Target sequence in this assay (P62937 whole entry, looked up): as the sequence (P62937 whole entry) above
Description: Inhibition of recombinant human CypA-mediated leukocyte migration from mouse bone marrow at 1 uM after 2 hrs

Mus musculus [9] = assay: In vivo inhibition of extracellular cyclophilin-mediated ear swelling in CD147-deficient TNCB challenged C57BL6 mouse at 4 mg/kg, ip bid administered on day 4 to 6; format: functional, organism-based; set-up: dose 4 mg/kg
[10] = molecular target: T1, Peptidyl-prolyl cis-trans isomerase A; settings: 1 uM; remark: listed apart in the source
Target sequence in this assay (P62937 whole entry, looked up): as the sequence (P62937 whole entry) above
Description: Inhibition of recombinant human CypA-mediated CD147-deficient leukocyte migration from mouse bone marrow at 1 uM after 2 hrs

[11] = molecular target: Peptidyl-prolyl cis-trans isomerase C (Homo sapiens, UniProt P45877); assay: Inhibition of CypC PPIase activity (unknown origin)
Leukocyte [12] = assay: Effect on fmlp-induced wild type mouse leukocytes migration from bone marrow; format: functional
Mus musculus [13] = assay: In vivo inhibition of extracellular cyclophilin-mediated MMP-9 secretion in peritoneal fluid in thioglycollate challenged C57BL6 mouse peritonitis model at 20 mg/kg, ip administered for 3 hrs before thioglycollate challenge by gelatin zymographic analysis; format: functional, organism-based; set-up: dose 20 mg/kg
[14] = molecular target: T1, Peptidyl-prolyl cis-trans isomerase A; settings: HeLa, 2 uM
Target sequence in this assay (P62937 whole entry, looked up): as the sequence (P62937 whole entry) above
Description: Inhibition of CypA-mediated ERK phosphorylation in serum-starved human HeLa cells at 2 uM after 5 mins by Western blotting analysis

Leukocyte [15] = assay: Effect on FCS-induced CD147-deficient mouse leukocytes migration from bone marrow; format: functional
Leukocyte [16] = assay: Effect on fmlp-induced CD147-deficient mouse leukocytes migration from bone marrow; format: functional
Mus musculus [17] = assay: In vivo inhibition of extracellular cyclophilin-mediated CD3+ T cells infiltration into TNCB challenged ear in C57BL6 mouse allergic contact hypersensitivity model at 4 mg/kg, ip bid administered on day 4 to 6 prior to TNCB challenge by immunohistochemical analysis; format: functional, organism-based; set-up: dose 4 mg/kg; settings: T-cell
Mus musculus [18] = assay: In vivo inhibition of extracellular cyclophilin-mediated CD11b+ myeloid cells infiltration into TNCB challenged ear in C57BL6 mouse allergic contact hypersensitivity model at 4 mg/kg, ip bid administered on day 4 to 6 prior to TNCB challenge by immunohistochemical analysis; format: functional, organism-based; set-up: dose 4 mg/kg
Mus musculus [19] = assay: In vivo inhibition of extracellular cyclophilin-mediated CD3+ T cells infiltration into TNCB challenged ear in CD147-deficient C57BL6 mouse allergic contact hypersensitivity model at 4 mg/kg, ip bid administered on day 4 to 6 prior to TNCB challenge by immunohistochemical analysis; format: functional, organism-based; set-up: dose 4 mg/kg; settings: T-cell
[20] = molecular target: T1, Peptidyl-prolyl cis-trans isomerase A; settings: myeloid, 1 uM
Target sequence in this assay (P62937 whole entry, looked up): as the sequence (P62937 whole entry) above
Description: Inhibition of recombinant human CypA-mediated CD11b+ myeloid cell migration from mouse bone marrow at 1 uM after 2 hrs

[21] = molecular target: T1, Peptidyl-prolyl cis-trans isomerase A; settings: Spleen, T-cell, 1 uM
Target sequence in this assay (P62937 whole entry, looked up): as the sequence (P62937 whole entry) above
Description: Inhibition of recombinant human CypA-mediated PMA/ionomycin-induced CD3+ T cell migration from mouse spleen at 1 uM after 2 hrs

[22] = as §1, with “compartments at 50 fold excess” for “compartments”; format: ADME, cell-based; settings: 1.5 h
Mus musculus [23] = assay: In vivo inhibition of extracellular cyclophilin-mediated IL-6 secretion in peritoneal fluid in thioglycollate challenged C57BL6 mouse peritonitis model at 20 mg/kg, ip administered for 3 hrs before thioglycollate challenge by ELISA; format: functional, organism-based; set-up: dose 20 mg/kg
Mus musculus [24] = assay: In vivo inhibition of extracellular cyclophilin-mediated monocytes recruitment in peritoneal fluid in thioglycollate challenged CD147-deficient C57BL6 mouse peritonitis model at 20 mg/kg, ip administered 3 hrs before thioglycollate challenge measured after 18 hrs; format: functional, organism-based; set-up: dose 20 mg/kg
Mus musculus [25] = assay: In vivo inhibition of extracellular cyclophilin-mediated ear swelling in TNCB challenged C57BL6 mouse allergic contact hypersensitivity model at 4 mg/kg, ip bid administered on day 4 to 6 measured after 24 hrs; format: functional, organism-based; set-up: dose 4 mg/kg
Leukocyte [26] = assay: Effect on FCS-induced wild type mouse leukocytes migration from bone marrow; format: functional

Sequence of Peptidyl-prolyl cis-trans isomerase C (P45877 whole entry): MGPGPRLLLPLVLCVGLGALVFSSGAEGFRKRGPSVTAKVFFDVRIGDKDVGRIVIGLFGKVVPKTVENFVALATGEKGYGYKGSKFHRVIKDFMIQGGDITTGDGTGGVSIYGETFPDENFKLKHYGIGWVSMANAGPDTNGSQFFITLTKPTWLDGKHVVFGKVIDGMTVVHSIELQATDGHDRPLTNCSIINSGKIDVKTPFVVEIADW

SMILES: CC[C@@H]1NC(=O)[C@H]([C@H](O)[C@H](C)CC2=Nc3ccccc3CN2)N(C)C(=O)[C@H](C(C)C)N(C)C(=O)[C@H](CC(C)C)N(C)C(=O)[C@H](CC(C)C)N(C)C(=O)[C@@H](C)NC(=O)[C@H](C)NC(=O)[C@H](CC(C)C)N(C)C(=O)[C@H](C(C)C)NC(=O)[C@H](CC(C)C)N(C)C(=O)CN(C)C1=O
inhibition (Homo sapiens): inactive | Drug uptake [1]: Active

SMILES: CC[C@@H]1NC(=O)[C@H]([C@H](O)[C@H](C)Cc2nc3ccc(C(=O)OC)cc3[nH]2)N(C)C(=O)[C@H](C(C)C)N(C)C(=O)[C@H](CC(C)C)N(C)C(=O)[C@H](CC(C)C)N(C)C(=O)[C@@H](C)NC(=O)[C@H](C)NC(=O)[C@H](CC(C)C)N(C)C(=O)[C@H](C(C)C)NC(=O)[C@H](CC(C)C)N(C)C(=O)CN(C)C1=O
Ki [2]: 0.0118 µM | IC50 [3]: 6.9 µM | Drug uptake [1]: Active

SMILES: CC[C@@H]1NC(=O)[C@H]([C@H](O)[C@H](C)Cc2nc3ccc(C(C)C)cc3[nH]2)N(C)C(=O)[C@H](C(C)C)N(C)C(=O)[C@H](CC(C)C)N(C)C(=O)[C@H](CC(C)C)N(C)C(=O)[C@@H](C)NC(=O)[C@H](C)NC(=O)[C@H](CC(C)C)N(C)C(=O)[C@H](C(C)C)NC(=O)[C@H](CC(C)C)N(C)C(=O)CN(C)C1=O
Ki [2]: 0.0439 µM | IC50 [3]: > 10 µM | Drug uptake [1]: Active

SMILES: CC[C@@H]1NC(=O)[C@H]([C@H](O)[C@H](C)Cc2nc3ccccc3[nH]2)N(C)C(=O)[C@H](C(C)C)N(C)C(=O)[C@H](CC(C)C)N(C)C(=O)[C@H](CC(C)C)N(C)C(=O)[C@@H](C)NC(=O)[C@H](C)NC(=O)[C@H](CC(C)C)N(C)C(=O)[C@H](C(C)C)NC(=O)[C@H](CC(C)C)N(C)C(=O)CN(C)C1=O
IC50 [3]: 1.2 µM | Drug uptake [1]: Active

SMILES: CC[C@@H]1NC(=O)[C@H]([C@H](O)[C@H](C)Cc2nc3ccc(C(=O)O)cc3[nH]2)N(C)C(=O)[C@H](C(C)C)N(C)C(=O)[C@H](CC(C)C)N(C)C(=O)[C@H](CC(C)C)N(C)C(=O)[C@@H](C)NC(=O)[C@H](C)NC(=O)[C@H](CC(C)C)N(C)C(=O)[C@H](C(C)C)NC(=O)[C@H](CC(C)C)N(C)C(=O)CN(C)C1=O
inhibition (Mus musculus [4]): Active | inhibition (Mus musculus [5]): inactive | Ki [2]: 0.0107 µM | inhibition (Homo sapiens): inactive | inhibition (Mus musculus [6]): inactive | inhibition (Mus musculus [7]): Active | inhibition [8]: Active | inhibition (Mus musculus [9]): inactive | inhibition [10]: inactive | Ki [11]: 0.118 µM | Activity (Leukocyte [12]): inactive | inhibition (Mus musculus [13]): Active | inhibition [14]: Active | Activity (Leukocyte [15]): inactive | Activity (Leukocyte [16]): inactive | inhibition (Mus musculus [17]): Active | inhibition (Mus musculus [18]): Active | inhibition (Mus musculus [19]): inactive | inhibition [20]: Active | inhibition [21]: Active | Drug uptake [22]: Not Active | inhibition (Mus musculus [23]): Active | inhibition (Mus musculus [24]): inactive | inhibition (Mus musculus [25]): Active | Activity (Leukocyte [26]): inactive

More lines, now with the values ahead:

Ki [2]: 0.0124 µM | IC50 [3]: 3.4 µM | Drug uptake [1]: Active
SMILES: CC[C@@H]1NC(=O)[C@H]([C@H](O)[C@H](C)Cc2nc3ccc(C)cc3[nH]2)N(C)C(=O)[C@H](C(C)C)N(C)C(=O)[C@H](CC(C)C)N(C)C(=O)[C@H](CC(C)C)N(C)C(=O)[C@@H](C)NC(=O)[C@H](C)NC(=O)[C@H](CC(C)C)N(C)C(=O)[C@H](C(C)C)NC(=O)[C@H](CC(C)C)N(C)C(=O)CN(C)C1=O

Ki [2]: 0.0366 µM | IC50 [3]: 4.5 µM | Drug uptake [1]: Active
SMILES: CC[C@@H]1NC(=O)[C@H]([C@H](O)[C@H](C)Cc2nc3ccccc3s2)N(C)C(=O)[C@H](C(C)C)N(C)C(=O)[C@H](CC(C)C)N(C)C(=O)[C@H](CC(C)C)N(C)C(=O)[C@@H](C)NC(=O)[C@H](C)NC(=O)[C@H](CC(C)C)N(C)C(=O)[C@H](C(C)C)NC(=O)[C@H](CC(C)C)N(C)C(=O)CN(C)C1=O

IC50 [3]: 4.6 µM | Drug uptake [1]: Active
SMILES: CC[C@@H]1NC(=O)[C@H]([C@H](O)[C@H](C)Cc2nc3ccccc3c(=O)[nH]2)N(C)C(=O)[C@H](C(C)C)N(C)C(=O)[C@H](CC(C)C)N(C)C(=O)[C@H](CC(C)C)N(C)C(=O)[C@@H](C)NC(=O)[C@H](C)NC(=O)[C@H](CC(C)C)N(C)C(=O)[C@H](C(C)C)NC(=O)[C@H](CC(C)C)N(C)C(=O)CN(C)C1=O

Reference: ChEMBL document CHEMBL2424541, “Anti-inflammatory effects of extracellular cyclosporins are exclusively mediated by CD147” (J Med Chem, 2013)
